Assay results: patent publication US8524755B2 (priority 2009, dated 2013)

Legend:
Adrenergic α2 (ns) = assay: Binding α2 (ns) (aa); parameters: species or system rat
Experimental: (§1) Radioligand binding assay methods utilized to measure the activity of compounds of the invention will be familiar to those skilled in the art. In each assay case, the assay components such as, for example, the cell-type, ligand, reference compound and the like, will be familiar to practitioners of such an assay.
(§2) Analysis and Expression of Results: Compounds of the invention were tested in the biochemical assays and percent inhibition of specific binding was determined. The specific ligand binding to the receptors is defined as the difference between the total binding and the nonspecific binding determined in the presence of an excess of unlabelled ligand. The results are expressed as a percent inhibition of control specific binding (100−((measured specific binding/control specific binding)×100)) obtained in the presence of test compounds.

Angiotensin AT1 (h) = target: T1, Angiotensin AT1 (h) (Homo sapiens, UniProt P30556); assay: Binding AT1 (h) (aa); conditions: read-out: % Inhibition of Control Specific Binding @ 10 μM
T1 construct: expressed in transfected cells; host or cells: HEK-293 cells
T1 sequence (P30556 1-359): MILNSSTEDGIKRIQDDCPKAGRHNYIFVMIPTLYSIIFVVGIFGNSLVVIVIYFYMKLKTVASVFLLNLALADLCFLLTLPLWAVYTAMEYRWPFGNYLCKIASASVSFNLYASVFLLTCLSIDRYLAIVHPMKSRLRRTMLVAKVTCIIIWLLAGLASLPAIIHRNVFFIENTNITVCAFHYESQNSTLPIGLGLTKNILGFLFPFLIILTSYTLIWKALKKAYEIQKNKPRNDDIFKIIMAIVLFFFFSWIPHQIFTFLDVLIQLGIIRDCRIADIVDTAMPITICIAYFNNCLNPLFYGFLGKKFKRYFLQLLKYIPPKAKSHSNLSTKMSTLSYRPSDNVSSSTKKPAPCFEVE
Experimental: as §1, §2

Bradykinin B2 (h) = target: T2, Bradykinin B2 (h) (Homo sapiens, UniProt P30411); assay: Binding B2 (h) (ag); conditions: read-out: % Inhibition of Control Specific Binding @ 10 μM
T2 construct: expressed in transfected cells; host or cells: CHO cells
T2 sequence (P30411 1-391): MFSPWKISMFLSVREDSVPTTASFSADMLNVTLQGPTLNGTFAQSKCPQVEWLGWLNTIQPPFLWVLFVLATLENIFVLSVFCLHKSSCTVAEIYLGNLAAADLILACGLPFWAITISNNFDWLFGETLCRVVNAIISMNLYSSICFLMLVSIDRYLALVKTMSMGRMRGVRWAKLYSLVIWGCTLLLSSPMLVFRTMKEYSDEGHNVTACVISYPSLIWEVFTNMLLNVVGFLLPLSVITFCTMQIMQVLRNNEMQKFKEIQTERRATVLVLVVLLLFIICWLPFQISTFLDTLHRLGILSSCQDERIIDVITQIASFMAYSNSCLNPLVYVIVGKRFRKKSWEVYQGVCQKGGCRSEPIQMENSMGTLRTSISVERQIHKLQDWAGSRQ
Experimental: as §1, §2

Dopamine D2S (h) = target: T3, Dopamine D2S (h) (Homo sapiens, UniProt P14416); assay: Binding D2S (h) (aa); conditions: read-out: % Inhibition of Control Specific Binding @ 10 μM
T3 construct: expressed in transfected cells; host or cells: HEK-293 cells
T3 sequence (P14416 1-414 isoform P14416-2): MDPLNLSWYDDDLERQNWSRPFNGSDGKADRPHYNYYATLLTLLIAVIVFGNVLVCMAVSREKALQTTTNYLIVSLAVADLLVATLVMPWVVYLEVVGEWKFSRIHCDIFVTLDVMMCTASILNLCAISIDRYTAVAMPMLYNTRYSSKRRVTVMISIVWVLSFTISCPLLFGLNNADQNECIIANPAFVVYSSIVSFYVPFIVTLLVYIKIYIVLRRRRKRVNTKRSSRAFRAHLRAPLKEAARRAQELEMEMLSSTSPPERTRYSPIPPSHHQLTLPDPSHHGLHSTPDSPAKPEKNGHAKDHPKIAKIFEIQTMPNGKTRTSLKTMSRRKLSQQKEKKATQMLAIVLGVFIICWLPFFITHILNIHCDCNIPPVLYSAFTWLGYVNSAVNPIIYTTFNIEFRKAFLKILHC
Experimental: as §1, §2

Histamine H1 (h) = target: T4, Histamine H1 (h) (Homo sapiens, UniProt P35367); assay: Binding H1 (h) (aa); conditions: read-out: % Inhibition of Control Specific Binding @ 10 μM
T4 construct: expressed in transfected cells; host or cells: HEK-293 cells
T4 sequence (P35367 whole entry): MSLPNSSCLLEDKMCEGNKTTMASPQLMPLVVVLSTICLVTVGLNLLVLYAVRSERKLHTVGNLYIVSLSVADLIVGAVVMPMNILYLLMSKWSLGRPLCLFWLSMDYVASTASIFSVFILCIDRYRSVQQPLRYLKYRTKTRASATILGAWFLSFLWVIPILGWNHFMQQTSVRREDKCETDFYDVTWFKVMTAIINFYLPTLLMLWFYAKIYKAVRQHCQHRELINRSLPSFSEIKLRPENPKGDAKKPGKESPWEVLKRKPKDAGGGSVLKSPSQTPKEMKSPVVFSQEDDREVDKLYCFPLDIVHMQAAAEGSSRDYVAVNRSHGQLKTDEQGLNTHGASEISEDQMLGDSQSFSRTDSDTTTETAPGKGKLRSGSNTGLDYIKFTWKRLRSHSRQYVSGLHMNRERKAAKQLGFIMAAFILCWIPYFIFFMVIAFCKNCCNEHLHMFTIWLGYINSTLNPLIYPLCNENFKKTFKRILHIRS
Experimental: as §1, §2

Neurokinin NK3 (h) = target: T5, Neurokinin NK3 (h) (Homo sapiens, UniProt P29371); assay: Binding NK3 (h) (aa); conditions: read-out: % Inhibition of Control Specific Binding @ 10 μM
T5 construct: expressed in transfected cells; host or cells: CHO cells
T5 sequence (P29371 1-465): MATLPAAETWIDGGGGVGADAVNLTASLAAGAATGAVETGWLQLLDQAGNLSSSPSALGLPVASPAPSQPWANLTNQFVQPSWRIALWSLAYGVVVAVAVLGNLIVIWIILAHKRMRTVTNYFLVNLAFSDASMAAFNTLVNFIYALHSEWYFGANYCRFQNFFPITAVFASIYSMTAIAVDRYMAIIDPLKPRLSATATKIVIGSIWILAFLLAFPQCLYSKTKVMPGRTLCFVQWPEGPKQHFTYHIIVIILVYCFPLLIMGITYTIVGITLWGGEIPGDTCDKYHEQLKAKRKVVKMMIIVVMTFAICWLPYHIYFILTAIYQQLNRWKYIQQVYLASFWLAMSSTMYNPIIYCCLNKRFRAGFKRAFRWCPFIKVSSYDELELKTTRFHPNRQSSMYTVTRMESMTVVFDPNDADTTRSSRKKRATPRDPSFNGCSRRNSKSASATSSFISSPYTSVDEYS
Experimental: as §1, §2

5-HT (ns) = assay: Binding 5-HT (ns) (ag); parameters: species or system rat
Experimental: as §1, §2

σ (ns) = assay: Binding σ (ns) (ag); parameters: species or system rat
Experimental: as §1, §2

Progesterone PR (h) = assay: Binding PR (h) (ag); parameters: species or system human
Experimental: as §1, §2

[1] = target: T6, Thyrotropin Releasing Hormone TRH1 (h) (Homo sapiens, UniProt P34981); assay: Binding TRH1 (h) (ag); conditions: read-out: % Inhibition of Control Specific Binding @ 10 μM
T6 construct: expressed in transfected cells; host or cells: CHO cells
T6 sequence (P34981 1-398): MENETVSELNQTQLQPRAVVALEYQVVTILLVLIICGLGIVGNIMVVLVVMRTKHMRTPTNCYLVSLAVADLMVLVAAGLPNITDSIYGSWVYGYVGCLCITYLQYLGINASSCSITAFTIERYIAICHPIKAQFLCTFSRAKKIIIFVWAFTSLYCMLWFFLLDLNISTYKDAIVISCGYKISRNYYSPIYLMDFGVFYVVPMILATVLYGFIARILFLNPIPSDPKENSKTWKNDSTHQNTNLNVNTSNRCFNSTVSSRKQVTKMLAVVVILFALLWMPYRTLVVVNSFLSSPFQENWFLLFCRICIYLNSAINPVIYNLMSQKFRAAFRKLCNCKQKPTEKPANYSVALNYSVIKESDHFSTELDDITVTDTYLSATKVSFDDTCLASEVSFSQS
Experimental: as §1, §2

[2] = tested on: Cl^− channel (GABA-gated); assay: Binding Cl− channel (GABA-gated) (aa); parameters: species or system rat
Experimental: as §1, §2

[3] = target: T7, norepinephrine transporter (h) (Homo sapiens, UniProt P23975); assay: Binding norepinephrine transporter (h) (aa); conditions: read-out: % Inhibition of Control Specific Binding @ 10 μM
T7 construct: expressed in transfected cells; host or cells: CHO cells
T7 sequence (P23975 whole entry): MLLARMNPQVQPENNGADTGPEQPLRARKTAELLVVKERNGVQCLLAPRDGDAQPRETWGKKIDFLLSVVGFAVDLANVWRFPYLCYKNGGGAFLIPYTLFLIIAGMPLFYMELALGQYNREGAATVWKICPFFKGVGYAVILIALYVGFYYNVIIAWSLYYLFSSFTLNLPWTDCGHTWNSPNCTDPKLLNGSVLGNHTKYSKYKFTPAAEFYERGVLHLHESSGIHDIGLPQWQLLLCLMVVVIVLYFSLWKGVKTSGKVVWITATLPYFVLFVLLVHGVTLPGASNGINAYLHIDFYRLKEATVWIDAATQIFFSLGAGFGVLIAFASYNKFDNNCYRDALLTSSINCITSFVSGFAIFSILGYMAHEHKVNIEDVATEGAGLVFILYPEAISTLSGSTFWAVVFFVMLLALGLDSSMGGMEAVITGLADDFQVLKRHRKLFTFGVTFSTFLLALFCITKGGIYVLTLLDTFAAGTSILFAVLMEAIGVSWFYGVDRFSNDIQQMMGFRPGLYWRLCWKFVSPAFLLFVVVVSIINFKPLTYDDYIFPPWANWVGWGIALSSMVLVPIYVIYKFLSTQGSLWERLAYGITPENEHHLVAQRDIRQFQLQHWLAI
Experimental: as §1, §2

COMT = assay: Enzyme assay COMT; assay type: biochemical, porcine
Description: (§3) The enzyme assays provided below will be familiar to those skilled in the art.
(§4) Analysis and Expression of Results: The results are expressed as a percent of control specific activity ((measured specific activity/control specific activity)×100) obtained in the presence of the test compounds.

ATPase (Na^+/K^+) = assay: Enzyme assay ATPase (Na+/K+); assay type: biochemical, porcine
Description: as §3, §4

`CC1(C)C(=O)N(c2ccc(C#N)c(C(F)(F)F)c2)C(=S)N1c1ccc(C(=O)O)c(F)c1` [(MI), 4-(3-(4-cyano-3-(trifluoromethyl)phenyl)-5,5-dimethyl-4-oxo-2-thioxoimidazolidin-1-yl)-2-fluorobenzoic acid] was tested, and the “% Inhibition of Control Specific Binding @ 10 μM” value (Adrenergic α2 (ns)) was −7%, the inhibition at 10 µM (Angiotensin AT1 (h)) was 11% and the inhibition at 10 µM (Bradykinin B2 (h)) was 2%. For the same compound, the inhibition at 10 µM (Dopamine D2S (h)) was -16%, the inhibition at 10 µM (Histamine H1 (h)) was -8% and the inhibition at 10 µM (Neurokinin NK3 (h)) was -11%. For the same compound, the “% Inhibition of Control Specific Binding @ 10 μM” value (5-HT (ns)) was 21%, the “% Inhibition of Control Specific Binding @ 10 μM” value (σ (ns)) was 20% and the “% Inhibition of Control Specific Binding @ 10 μM” value (Progesterone PR (h)) was 23%. The inhibition at 10 µM [1] was 18%, the “% Inhibition of Control Specific Binding @ 10 μM” value [2] was 47% and the inhibition at 10 µM [3] was 56%. The “% Inhibition of Control Values @ 10 μM” value (COMT) was 1% and the “% Inhibition of Control Values @ 10 μM” value (ATPase (Na^+/K^+)) was 4%.
For `CC1(C)C(=O)N(c2ccc(C#N)c(C(F)(F)F)c2)C(=S)N1c1ccc(C(N)=O)c(F)c1` [(MII), 4-(3-(4-Cyano-3-(trifluoromethyl)phenyl)-5,5-dimethyl-4-oxo-2-thioxoimidazolidin-1-yl)-2-fluorobenzamide], the “% Inhibition of Control Specific Binding @ 10 μM” value (Adrenergic α2 (ns)) was −9%, the inhibition at 10 µM (Angiotensin AT1 (h)) was 0% and the inhibition at 10 µM (Bradykinin B2 (h)) was -12%. The inhibition at 10 µM (Dopamine D2S (h)) was -8%, the inhibition at 10 µM (Histamine H1 (h)) was 2% and the inhibition at 10 µM (Neurokinin NK3 (h)) was 3%. For the same compound, the “% Inhibition of Control Specific Binding @ 10 μM” value (5-HT (ns)) was 14%, the “% Inhibition of Control Specific Binding @ 10 μM” value (σ (ns)) was 39% and the “% Inhibition of Control Specific Binding @ 10 μM” value (Progesterone PR (h)) was 74%. For the same compound, the inhibition at 10 µM [1] was -4%, the “% Inhibition of Control Specific Binding @ 10 μM” value [2] was 81% and the inhibition at 10 µM [3] was -13%. For the same compound, the “% Inhibition of Control Values @ 10 μM” value (COMT) was −1% and the “% Inhibition of Control Values @ 10 μM” value (ATPase (Na^+/K^+)) was −10%.
With `CC1(C)C(=O)N(c2ccc(C#N)c(C(F)(F)F)c2)C(=O)N1c1ccc(C(N)=O)c(F)c1` [(MIII), 4-(3-(4-cyano-3-(trifluoromethyl)phenyl)-5,5-dimethyl-2,4-dioxoimidazolidin-1-yl)-2-fluorobenzamide] the “% Inhibition of Control Specific Binding @ 10 μM” value (Adrenergic α2 (ns)) was −7%, the inhibition at 10 µM (Angiotensin AT1 (h)) was 6% and the inhibition at 10 µM (Bradykinin B2 (h)) was -3%. The inhibition at 10 µM (Dopamine D2S (h)) was -22%, the inhibition at 10 µM (Histamine H1 (h)) was -2% and the inhibition at 10 µM (Neurokinin NK3 (h)) was -2%. For the same compound, the “% Inhibition of Control Specific Binding @ 10 μM” value (5-HT (ns)) was −12%, the “% Inhibition of Control Specific Binding @ 10 μM” value (σ (ns)) was 34% and the “% Inhibition of Control Specific Binding @ 10 μM” value (Progesterone PR (h)) was 8%. The inhibition at 10 µM [1] was -5%, the “% Inhibition of Control Specific Binding @ 10 μM” value [2] was 38% and the inhibition at 10 µM [3] was 9%. For the same compound, the “% Inhibition of Control Values @ 10 μM” value (COMT) was −1% and the “% Inhibition of Control Values @ 10 μM” value (ATPase (Na^+/K^+)) was 3%.
For `CNC(=O)c1ccc(N2C(=O)N(c3ccc(C#N)c(C(F)(F)F)c3)C(=O)C2(C)C)cc1F` [(MIV), 4-(3-(4-cyano-3-(trifluoromethyl)phenyl)-5,5-dimethyl-2,4-dioxoimidazolidin-1-yl)-2-fluoro-N-methylbenzamide], the “% Inhibition of Control Specific Binding @ 10 μM” value (Adrenergic α2 (ns)) was −7%, the inhibition at 10 µM (Angiotensin AT1 (h)) was 0% and the inhibition at 10 µM (Bradykinin B2 (h)) was 0%. It also gave an inhibition at 10 µM (Dopamine D2S (h)) of -17%, an inhibition at 10 µM (Histamine H1 (h)) of -11% and an inhibition at 10 µM (Neurokinin NK3 (h)) of -7%. For the same compound, the “% Inhibition of Control Specific Binding @ 10 μM” value (5-HT (ns)) was 6%, the “% Inhibition of Control Specific Binding @ 10 μM” value (σ (ns)) was 50% and the “% Inhibition of Control Specific Binding @ 10 μM” value (Progesterone PR (h)) was 11%. The inhibition at 10 µM [1] was 0%, the “% Inhibition of Control Specific Binding @ 10 μM” value [2] was 36% and the inhibition at 10 µM [3] was 20%. The “% Inhibition of Control Values @ 10 μM” value (COMT) was 0% and the “% Inhibition of Control Values @ 10 μM” value (ATPase (Na^+/K^+)) was −13%.
